Data: patent publication US20210346359A1, “Use of CFTR Modulators For Treating Cerebrovascular Conditions” (Qanatpharma AG, priority 2018, published 2021)
“Also recorded” adds a separate entry of the source.

Columns and labels:
[1] = test system: olfactory cerebral arteries; assay: Phenylephrine responses of isolated olfactory cerebral arteries; format: in vivo, mouse; conditions: for phenylephrine dose-response relationship, SAH vs SAH+treatment: not normalized; for log EC50 of phenylephrine response: olfactory cerebral arteries, SAH+treatment group, log scale
Experimental: Isolation and functional assessment of resistance arteries: Mouse olfactory (a first branch of the anterior cerebral artery) and PCAs were carefully dissected, cannulated onto micropipettes, stretched to their in vivo lengths and pressurized to 45 mmHg, as previously described (3,6); mouse skeletal muscle resistance arteries were dissected from the cremaster muscle, cannulated and pressurized to 60 mmHg. All functional experiments were conducted in 3-morpholinopropanesulfonic acid (MOPS) buffered saline at 37° C. with no perfusion. Vasomotor responses to phenylephrine (5 μmol/L for posterior cerebral arteries, 10 μmol/L for cremaster skeletal muscle arteries) provided an assessment of vessel viability at the beginning and end of each experiment. Arteries failing to show ≥25% constriction to phenylephrine were excluded.
Myogenic tone was calculated as the percent constriction in relation to the maximal diameter at each respective transmural pressure: tone (% of diamax)=[(diamax−diaactive)/diamax]×100, where diaactive is the vessel diameter in MOPS containing Ca^2+ and diamax is the diameter in Ca^2+-free MOPS. Analyses of vasomotor responses to phenylephrine used the same calculation, only in this case, diaactive represents the vessel diameter at steady state following application of the given agent and diamax represents the maximal diameter measured under Ca^2+-free conditions.

[2] = test system: mice with subarachnoid hemorrhage; assay: MRI (FAIR) cerebral blood flow in subarachnoid hemorrhage mice; format: in vivo, mouse; conditions: SAH mice, 3 mg/kg daily for 2 days
Text: As described previously (10-12), we utilized a flow-sensitive alternating inversion recovery (FAIR) magnetic resonance imaging (MRI) technique (13) to evaluate cerebral blood flow (CBF). During imaging, mice were immobilized with 1.8% isoflurane delivered through a nose cone. To maintain body temperature, the MRI is equipped with embedded tubes that convect water from an external heater-pump. Respiration was monitored using a pneumatic pillow (SA Instruments, Stonybrook, USA); isoflurane levels were adjusted to maintain respiration at approximately 50 breaths/minute.
FAIR images were obtained using a 7 Tesla micro-MRI system (BioSpec 70/30 USR, Bruker BioSpin, Ettlingen, Germany), including the B-GA12 gradient insert, 72 mm inner diameter linear volume resonator for RF transmission, and anteriorly placed head coil for RF reception. […] FAIR images were evaluated by manual prescription (MIPAV, NIH, Bethesda, MD; http://mipav.cit.nih.gov) of sub-hemispheric regions-of-interest (ROIs), termed ‘global’, and local ROIs corresponding to cortical and sub-cortical parenchyma in forebrain sections; cortical and paraventricular parenchyma in middle sections; and cortical and midbrain parenchyma in hindbrain sections. […]

[3] = olfactory cerebral arteries from SAH mice, 3 mg/kg i.p. daily for 2 days, 3 mg/kg

SMILES	phenylephrine dose-response relationship, SAH vs SAH+treatment [1, 3]	log EC50 of phenylephrine response [1]	cerebral blood flow / cerebral perfusion [2]	phenylephrine dose-response relationship ([1]; olfactory cerebral arteries from CFTR knockout mice, 3 mg/kg i.p. daily for 2 days, 3 mg/kg)	phenylephrine dose-response relationship normalized to basal tone, SAH vs SAH+C18 [1, 3]	phenylephrine dose-response relationship ([1]; olfactory cerebral arteries from sham-operated mice, 3 mg/kg i.p. daily for 2 days, 3 mg/kg)
Cc1ccc(NC(=O)C2(c3ccc4c(c3)OC(F)(F)O4)CC2)nc1-c1cccc(C(=O)O)c1 [lumacaftor]	does not affect; also recorded: does not alter	−5.90±0.18	normalizes; also recorded: significantly improves			
O=C(Nc1ncc(C(c2ccccc2Cl)N2CCC(O)C2)s1)C1(c2ccc3c(c2)OCO3)CC1 (stereo not drawn) [C18, 1-(benzo[d][1,3]dioxol-5-yl)-N-(5-((2-chlorophenyl)(3-hydroxypyrrolidin-1-yl)methyl)thiazol-2-yl)cyclopropanecarboxamide]	expected baseline shift; also recorded: not statistically different	−6.61±0.31	restores; also recorded: significantly improves	not affected; also recorded: does not alter	curves overlap; also recorded: minimal	does not affect; also recorded: does not alter
